The values that follow come from patent publication US7304058B2, “Carbamic acid esters of benzothiazoles” (Hoffmann-La Roche Inc., priority 2003, dated 2007).

One may read the melting point as the temperature, or range, at which the solid turns liquid.

Data set [1] addresses T1, human adenosine A2A receptor (Homo sapiens, UniProt P29274).
T1 construct: expressed in transfected cells; host or cells: CHO cells, Semliki Forest virus expression system; membrane preparation
The data set is described as follows: [3H]-SCH-58261 binding assay, human adenosine A2A receptor. The conditions noted are these: [3H]-SCH-58261 1 nM; membranes of CHO cells expressing the recombinant receptor; Ki by Cheng-Prussoff; read-out: hA2 (pKi) (converted). The procedure:
Human Adenosine A2A Receptor
The human adenosine A2A receptor was recombinantly expressed in Chinese hamster ovary (CHO) cells using the semliki forest virus expression system. Cells were harvested, washed twice by centrifugation, homogenized and again washed by centrifugation. The final washed membrane pellet was suspended in a Tris (50 mM) buffer containing 120 mM NaCl, 5 mM KCl, 2 mM CaCl2 and 10 mM MgCl2 (pH 7.4) (buffer A). The [^3H]-SCH-58261 (Dionisotti et al., 1997, Br J Pharmacol 121, 353; 1 nM) binding assay was carried out in 96-well plates in the presence of 2.5 μg of membrane protein, 0.5 mg of Ysi-poly-1-lysine SPA beads and 0.1 U adenosine deaminase in a final volume of 200 μl of buffer A. Non-specific binding was defined using xanthine amine congener (XAC; 2 μM). Compounds were tested at 10 concentrations from 10 μM-0.3 nM. All assays were conducted in duplicate and repeated at least two times. Assay plates were incubated for 1 hour at room temperature before centrifugation and then bound ligand determined using a Packard Topcount scintillation counter. IC50 values were calculated using a non-linear curve fitting program and Ki values calculated using the Cheng-Prussoff equation.

T1 sequence (P29274 whole entry): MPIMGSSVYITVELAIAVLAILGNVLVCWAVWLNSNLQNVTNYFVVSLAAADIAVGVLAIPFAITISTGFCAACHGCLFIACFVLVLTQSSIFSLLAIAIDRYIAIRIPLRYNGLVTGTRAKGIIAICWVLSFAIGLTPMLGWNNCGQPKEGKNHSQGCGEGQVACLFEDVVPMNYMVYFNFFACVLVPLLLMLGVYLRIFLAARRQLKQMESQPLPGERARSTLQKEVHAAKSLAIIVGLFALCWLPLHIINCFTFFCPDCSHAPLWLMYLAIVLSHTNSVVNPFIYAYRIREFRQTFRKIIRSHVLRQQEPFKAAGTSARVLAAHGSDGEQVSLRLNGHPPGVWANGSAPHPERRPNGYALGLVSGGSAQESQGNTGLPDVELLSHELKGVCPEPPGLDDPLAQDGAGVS

`COc1ccc(N2CCOCC2)c2sc(NC(=O)OC3CCC(O)C3)nc12` (mixture of isomers) [Example 11, (cis/trans)-(4-Methoxy-7-morpholin-4-yl-benzothiazol-2-yl)-carbamic acid 3-hydroxy-cyclopentyl ester] registered a melting point of 188 to 189 °C. Besides, the Ki in data set [1] was 15.8 nM.

`COc1ccc(N2CCOCC2)c2sc(NC(=O)OC3CC4CC3CC4O)nc12` (racemic) [Example 9, (rac)-(exo,exo)-(4-Methoxy-7-morpholin-4-yl-benzothiazol-2-yl)-carbamic acid 5-hydroxy-bicyclo[2.2.1]hept-2-yl ester] displayed a melting point of 193 to 194 °C. Further, the Ki in data set [1] is 3.98 nM.

In turn, `COc1ccc(C2CCOCC2)c2sc(NC(=O)O[C@H]3CC[C@H](O)CC3)nc12` [Example 1, (trans)-[4-Methoxy-7-(tetrahydro-pyran-4-yl)-benzothiazol-2-yl]-carbamic acid 4-hydroxy-cyclohexyl ester] had a melting point of 282 to 284 °C. Also, the Ki in data set [1] was 2 nM.

Compound `CCOC(=O)Nc1nc2c(OC)ccc(C3CCOCC3)c2s1` [Example 2, [4-Methoxy-7-(tetrahydro-pyran-4-yl)-benzothiazol-2-yl]-carbamic acid ethyl ester] yielded a melting point of 170 to 174 °C. Further, in data set [1], the Ki was 5.01 nM.

Regarding `COCCOC(=O)Nc1nc2c(OC)ccc(N3CCOCC3)c2s1` [Example 3, (4-Methoxy-7-morpholin-4-yl-benzothiazol-2-yl)-carbamic acid 2-methoxy-ethyl ester], the melting point fell in the range of 149 to 152 °C. For the same compound, in data set [1], the Ki is 12.6 nM.

For `COc1ccc(N2CCOCC2)c2sc(NC(=O)OCC(C)C)nc12` [Example 4, (4-Methoxy-7-morpholin-4-yl-benzothiazol-2-yl)-carbamic acid isobutyl ester], the melting point lay within 164 to 168 °C. Further, the Ki in data set [1] is 25.1 nM.

On to `COc1ccc(N2CCOCC2)c2sc(NC(=O)OC3CCCCC3)nc12` [Example 5, (4-Methoxy-7-morpholin-4-yl-benzothiazol-2-yl)-carbamic acid cyclohexyl ester], for which the melting point lay in the range of 177 to 179 °C. Moreover, the Ki in data set [1] was 7.94 nM.

In turn, `COc1ccc(N2CCOCC2)c2sc(NC(=O)O[C@H]3CC[C@H](O)CC3)nc12` [Example 6, (tran)s-(4-Methoxy-7-morpholin-4-yl-benzothiazol-2-yl)-carbamic acid 4-hydroxy-cyclohexyl ester] gave a melting point of 176 to 179 °C. Also, in data set [1], the Ki is 6.31 nM.

`COc1ccc(N2CCOCC2)c2sc(NC(=O)O[C@H]3CC[C@@H](O)CC3)nc12` [Example 7, (cis)-(4-Methoxy-7-morpholin-4-yl-benzothiazol-2-yl)-carbamic acid 4-hydroxy-cydohexyl ester] gave a melting point of 204 to 206 °C. The Ki in data set [1] was 10 nM.

`COc1ccc(N2CCOCC2)c2sc(NC(=O)OC3CCOCC3)nc12` [Example 8, (4-Methoxy-7-morpholin-4-yl-benzothiazol-2-yl)-carbamic acid tetrahydro-pyran-4-yl ester]: the melting point is 187 to 188 °C. For the same compound, in data set [1], the Ki is 7.94 nM.

Turning to `COc1ccc(N2CCOCC2)c2sc(NC(=O)O[C@@H]3CCOC3)nc12` [Example 10, (R)-(4-Methoxy-7-morpholin-4-yl-benzothiazol-2-yl)-carbamic acid tetrahydro-furan-3-yl ester], the melting point was 198 to 200 °C. Besides, in data set [1], the Ki was 25.1 nM.

`COc1ccc(C2CCOCC2)c2sc(NC(=O)OCC3CCCO3)nc12` (centres unmarked) [Example 12, [4-Methoxy-7-(tetrahydro-pyran-4-yl)-benzothiazol-2-yl]-carbamic acid tetrahydro-furan-2-ylmethyl ester] gave a melting point of 175 to 180 °C. Moreover, in data set [1], the Ki was 12.6 nM.

As for `COc1ccc(C2CCOCC2)c2sc(NC(=O)O[C@H]3CCOC3)nc12` [Example 13, [4-Methoxy-7-(tetrahydro-pyran-4-yl)-benzothiazol-2-yl]-carbamic acid (S)-(tetrahydro-furan-3-yl) ester], the melting point lay within 195 to 200 °C. Besides, the Ki in data set [1] was 3.98 nM.
